Legend:
[1] = Inhibition of Mycobacterium tuberculosis Uracil-DNA glycosylase using 5'-FAM-CUUUUUGAGCTTTTGCTCAAAAAG-3'-BHQ-1 as substrate measured every 2 mins for 40 mins by fluorescence based analysis
[2] = Inhibition of Mycobacterium tuberculosis Uracil-DNA glycosylase using 5' 32P end-labelled uracil DNA containing oligomer (5'-ctcaagtgUaggcatgcttttgcatgcctgcacttga-3') as substrate preincubated with enzyme for 15 mins followed by incubation on ice for 5 mins and incubation at room temperature for 5 mins and later incubated with substrate for 15 mins by radioactivity based assay

| Compound | IC50 [1] | IC50 [2] |
| --- | --- | --- |
| O=Cc1cc(=O)[nH]c(=O)[nH]1 | 6.51 mM | 1 mM |
| O=c1cc[nH]c(=O)[nH]1 [URACIL] | 2.05 mM | 0.8 mM |
| O=C1NC(=O)C(=Cc2ccc(Br)cc2)C(=O)N1 |  | 1.5 mM |
| O=C(O)c1c[nH]c(=O)[nH]c1=O | 15.9 mM | 2.4 mM |
| COC(=O)CCCOc1cccc(C=C2C(=O)NC(=O)NC2=O)c1 | 4.2 mM |  |
| Cc1cc2nc3[nH]c(=O)[nH]c(=O)c3nc2cc1C [LUMICHROME] |  | 1.5 mM |
| COC(=O)COc1ccccc1C=C1C(=O)NC(=O)NC1=O | 5.55 mM |  |
| COC(=O)CCCOc1ccccc1C=C1C(=O)NC(=O)NC1=O | 0.99 mM |  |
| COC(=O)c1cccc(OCCOc2ccc(C=C3C(=O)NC(=O)NC3=O)cc2)c1 |  | 2.4 mM |
| COC(=O)COc1cccc(C=C2C(=O)NC(=O)NC2=O)c1 | 10.4 mM |  |
| COc1cccc(C=C2C(=O)NC(=O)NC2=O)c1 |  | 1.9 mM |
| COC(=O)c1ccc(OCCOc2ccccc2C=C2C(=O)NC(=O)NC2=O)cc1 |  | 3.5 mM |
| COc1cc2nc(O)nc(O)c2cc1OC | 0.93 mM |  |
| COC(=O)c1ccccc1OCCOc1ccc(C=C2C(=O)NC(=O)NC2=O)cc1 |  | 0.1 mM |
| COC(=O)CCCOc1ccc(C=C2C(=O)NC(=O)NC2=O)cc1 |  | 3 mM |
| COC(=O)c1ccccc1OCCCOc1ccc(C=C2C(=O)NC(=O)NC2=O)cc1 |  | 1.6 mM |
| O=C1CC(=O)NC(=O)N1 [BARBITURIC ACID] | 7.29 mM | 1 mM |
| O=C1NC(=O)C(=Cc2ccc(OCCOc3ccccc3C(=O)O)cc2)C(=O)N1 | 1.1 mM | 1.9 mM |
| COC(=O)c1ccc(OCCOc2ccc(C=C3C(=O)NC(=O)NC3=O)cc2)cc1 |  | 1.2 mM |
| O=C1NC(=O)C(=Cc2ccc([N+](=O)[O-])cc2)C(=O)N1 |  | 1 mM |
| Oc1nc(O)c2nc(O)[nH]c2n1 [URIC ACID] | 16.4 mM | 1.7 mM |
| COC(=O)c1ccccc1OCCOc1ccccc1C=C1C(=O)NC(=O)NC1=O | 1.06 mM |  |
| O=C1CSC(=O)N1 [THIAZOLIDINEDIONE] | 17.3 mM |  |
| COC(=O)COc1ccc(C=C2C(=O)NC(=O)NC2=O)cc1 | 0.33 mM | 0.5 mM |
| O=C1NC(=O)C(=Cc2ccc(OCCCOc3ccccc3C(=O)O)cc2)C(=O)N1 |  | 0.7 mM |
| O=C(O)c1[nH]c(=O)[nH]c(=O)c1F | 2.93 mM | 2.8 mM |
| O=C(O)c1cc(=O)[nH]c(=O)[nH]1 [OROTIC ACID] | 14.2 mM | 2.3 mM |
| Oc1ncc(O)c(O)n1 | 2.8 mM | 1.2 mM |
